Source: US20070231837A1, “Method of Assessing Properties of Mammalian Cells, and Method of Diagnosing Cancer Using the Same” (priority 2004, published 2007)

Test system: breast cancer patients
Assay: Chemotherapeutic effect of anticancer agent: tumor size reduction evaluated by palpation in breast cancer patients
Type: in vivo, human
Description: An anticancer agent docetaxel (Aventis) was administered 4 times with an interval of 3 to 4 weeks, with 60 mg/M^2 (body surface area) per dosage for the breast cancer patients A through I. After the administration, the tumor size reduction was assessed.
A pathologist evaluated the tumors by palpation according to the criteria described in the following paper: Arbuck S G, Eisenhauer E A, Wanders J, Kaplan R S, Rubinstein L, Verweij J, Van Glabbeke M, van Oosterom A T, Christian M C, and Gwyther S G, “New guidelines to evaluate the response to treatment in solid tumors”, J. Natl. Cancer Inst 2000; 92: 205-21. When the tumor was evaluated with the result of “Complete response” and “Partial response”, the tumor was classified into the group of tumor size reduction. When the tumor was evaluated with the result of “Stable Disease” and “Progressive Disease”, the tumor was classified into the group of non-tumor size reduction.
An anticancer agent paclitaxel (Bristol Meyers Squibb) was administered once a week for 12 consecutive weeks, with 80 mg/M^2 (body surface area) per dosage for the breast cancer patients A through I (sic, correctly, J through P). After the administration, the tumor size reduction was assessed according to the same criterion as used in the administration of docetaxel.

[1] = docetaxel 60 mg/M^2 per dosage, 4 times with an interval of 3 to 4 weeks, breast cancer patients A through I

SMILES | patients classified into non-tumor size reduction group (Stable Disease or Progressive Disease) [1] | patients classified into tumor size reduction group (Complete response or Partial response) [1] | patients who were assessed that the tumor size reduction was observed (paclitaxel 80 mg/M^2 per dosage, once a week for 12 consecutive weeks, breast cancer patients J through P)
CC(=O)O[C@@]12CO[C@@H]1C[C@H](O)[C@@]1(C)C(=O)[C@H](O)C3=C(C)[C@@H](OC(=O)[C@H](O)[C@@H](NC(=O)OC(C)(C)C)c4ccccc4)C[C@@](O)([C@@H](OC(=O)c4ccccc4)[C@H]21)C3(C)C [docetaxel] | A, B, C, and D | E, F, G, H, and I | 
CC(=O)O[C@H]1C(=O)[C@@]2(C)[C@H]([C@H](OC(=O)c3ccccc3)[C@]3(O)C[C@H](OC(=O)[C@H](O)[C@@H](NC(=O)c4ccccc4)c4ccccc4)C(C)=C1C3(C)C)[C@]1(OC(C)=O)CO[C@@H]1C[C@@H]2O [paclitaxel] |  |  | K, L, M, N, O, and P
